Source: patent US20260306464A1, “LINAPRAZAN GLURATE FOR TREATING GASTROESOPHAGEAL REFLUX DISEASE (GERD)” (Cinclus Pharma Holding AB (publ), priority 2023, published 2026)

Tests used:
[1] = test system: intragastric pH; assay: 48-hour intragastric pH-metry, Phase 1 exploratory dose-finding study in healthy subjects; type: in vivo, human; settings: for Hours with pH >4 (Mean (SD)) / Hours with pH >4 (Median (min, max)) / Percentage of time with pH >4 (Mean) / Percentage of time with pH >4 (Median (min, max)): healthy subjects
Text: The study was a single-centre, open-label, parallel-group, randomised exploratory dose-finding study designed to evaluate the PK, PD, safety and tolerability of repeated oral doses of linaprazan glurate (LG) at 3 dose levels, in healthy male and female subjects. About 36 subjects were randomised for an estimated total of 12 evaluable subjects per treatment arm.
Subjects came to the clinic for 3 visits. The screening (Visit 1) took place from Day −28 to Day −1 and included an eligibility check and review of health status. At Visit 2, subjects were admitted to the clinic on Day −1 and remained at the clinic until Day 4 for repeated dose of LG administration and safety, PK and PD assessments. The subjects fasted for at least 8 hours before the anticipated dosing time on Day 1. Water, but no other drinks, was allowed as desired except for 1 hour before and 30 minutes after dosing. In the morning of Day 1, subjects were randomised to one of 3 treatment arms: • LG 50 mg BID for 3 days (5 doses, last dose in the morning of Day 3) • LG 100 mg (2×50 mg) BID for 3 days (5 doses, last dose in the morning of Day 3) • LG 150 mg (3×50 mg) BID for 3 days (5 doses, last dose in the morning of Day 3)
Subjects were carefully monitored by clinical staff during and after dosing. […] The pH-metry assessment was started prior to Dose 3 (in the morning of Day 2) and continued for 48 hours, until 24 hours post last dose. Vital signs and ECG were checked at regular intervals and PK sampling was done at selected timepoints. A final end-of-study visit (Visit 3) took place on Day 7 (±2) or after early withdrawal. Each subject was expected to participate in the study for approximately 7 days from the day of randomisation (Day 1, Visit 2) to the End-of Study Visit. The Screening Visit was performed within 28 days prior to randomisation (Day −28 to Day −1).

[2] = LEED study: endoscopic healing of erosive esophagitis / LA grade improvement after 4 weeks; type: in vivo, human
Text: The severity of esophagitis is typically indicated using the Los Angeles (LA) classification of reflux esophagitis, which is based on an endoscopic assessment of the patient. The LA grade scoring system divides reflux esophagitis into four categories (LA grade A to D) based on the extent of esophageal mucosal breaks. […] LA grade C esophagitis is defined as one or more mucosal breaks that are continuous between the tops of two mucosal folds, but which involves less than 75% of the esophageal circumference. The most severe form, LA grade D esophagitis, is defined as one or more mucosal breaks involving at least 75% of the esophageal circumference (Lundell et al., Gut 1999, vol. 45, p. 172-180).
As used herein, the terms “improvement of the LA grade” and “LA grade improvement” refer to one or more steps from one LA grade to a lower LA grade (such as from grade D to grade C, B or A) or to being healed. In some embodiments, the improvement of the LA grade is 1 step. In some embodiments, the improvement of the LA grade is 2 steps. In some embodiments, the improvement of the LA grade is 3 steps. In some embodiments, the improvement of the LA grade is 4 steps.
The study included patients with erosive esophagitis (eGERD). Patients were divided into two cohorts, one with patients having moderate to severe eGERD (LA grade C/D) and one with patients having milder eGERD (LA grade A/B) with a history of only partial response to PPI-treatment. The primary endpoint of the study was to support dose selection of linaprazan glurate for the phase III program in eGERD, through central assessment of healing of erosive esophagitis after four weeks of treatment. The sample size, i.e., the number of patients needed, for measuring dose related efficacy was based on the patient cohort with moderate to severe eGERD. After initial endoscopy and other screening procedures, 248 patients were randomized equally into one of five treatment groups, receiving either four weeks treatment with linaprazan glurate in four dose levels, or four weeks lansoprazole in the approved standard eGERD healing dose. Thereafter, an endoscopic evaluation of healing was performed, where healing was defined as no presence of esophageal erosions, i.e., no erosive damage to the esophageal mucosa. After the endoscopic evaluation, all patient groups received lansoprazole for four weeks in a maintenance phase. A retrospective central review of the endoscopy findings was performed, and 162 patients were available for evaluation of the primary endpoint. All enrolled 248 patients were included in the safety analysis.
The study was a randomized, double-blind, active comparator-controlled study with a parallel group design including four arms with linaprazan glurate and one arm with lansoprazole. Pharmacokinetic (PK) blood sampling pre-dose, close before the first and the second dose administration was performed at Day 7, Day 14 and Day 28 visits days in all patients. 248 patients with erosive esophagitis due to GERD LA grade C or D and patients with erosive esophagitis due to GERD LA grade A or B with at least partial symptom response but still endoscopically unhealed after 8 weeks history of standard treatment healing course with PPI, were randomized.
Randomization to one of the treatments with linaprazan glurate 25 mg, 50 mg, 75 mg, 100 mg twice daily (BID), or lansoprazole 30 mg once daily (QD) was based on a 1:1:1:1:1 scheme. One site could not enroll more than about 20% of the overall number of patients (48 patients per site).
The duration of each patient's participation in the study, including screening, blind treatment period and open-label treatment period, was approximately 60 days. The patients were randomized for 4 weeks (28 days, −2/+5 days) of double-blind treatment and were provided with IMP for 35 days (including one additional blister pack dispensed at Visit 2/Day 0) to allow for treatment up to the visit window. […]

[3] = 50 mg LG, 1 last dose in the morning (Day 3, "QD")
[4] = 50 mg LG, 2 doses (Day 2, BID), oral
[5] = 100 mg LG, 1 last dose in the morning (Day 3, "QD")
[6] = 100 mg LG, 2 doses (Day 2, BID), oral
[7] = 150 mg LG, 1 last dose in the morning (Day 3, "QD")
[8] = 150 mg LG, 2 doses (Day 2, BID), oral
[9] = 100 or 150 mg, two daily doses (Day 2) vs once daily (Day 3)
[10] = LA grade C/D, LG 100 mg BID, 4 weeks

With `Cc1cccc(C)c1CNc1cc(C(=O)NCCOC(=O)CCCC(=O)O)cn2c(C)c(C)nc12` [linaprazan glurate, 5-{2-[({8-[(2,6-dimethylbenzyl)amino]-2,3-dimethylimidazo[1,2-a]pyridine-6-yl}carbonyl)-amino]ethoxy}-5-oxopentanoic acid] the “Hours with pH >4 (Mean (SD))” value [1, 3] was 17.04 (5.33) hours, the “Hours with pH >4 (Median (min, max))” value [1, 3] was 15.80 (6.8, 23.8) hours and the “Percentage of time with pH >4 (Mean)” value [1, 3] was 71.15%. For the same compound, the “Percentage of time with pH >4 (Median (min, max))” value (shortened to “Percentage … (Median (min, max))”) [1, 3] was 65.90 (28.6, 99.8) %, the “Hours with pH >4 (Mean (SD))” value [1, 4] was 15.47 (4.83) hours and the “Hours with pH >4 (Median (min, max))” value [1, 4] was 15.65 (8.5, 23.8) hours. For the same compound, the “Percentage of time with pH >4 (Mean)” value [1, 4] was 64.48%, the “Percentage … (Median (min, max))” value [1, 4] was 65.20 (35.4, 99.1) % and the “Hours with pH >4 (Mean (SD))” value [1, 5] was 18.38 (3.84) hours. For the same compound, the “Hours with pH >4 (Median (min, max))” value [1, 5] was 19.30 (11.6, 23.5) hours, the “Percentage of time with pH >4 (Mean)” value [1, 5] was 76.81% and the “Percentage … (Median (min, max))” value [1, 5] was 80.50 (48.9, 97.8) %. For the same compound, the “Hours with pH >4 (Mean (SD))” value [1, 6] was 18.93 (4.83) hours, the “Hours with pH >4 (Median (min, max))” value [1, 6] was 21.30 (7.0, 22.8) hours and the “Percentage of time with pH >4 (Mean)” value [1, 6] was 78.85%. For the same compound, the “Percentage … (Median (min, max))” value [1, 6] was 88.70 (29.1, 95.0) %, the “Hours with pH >4 (Mean (SD))” value [1, 7] was 20.38 (3.51) hours and the “Hours with pH >4 (Median (min, max))” value [1, 7] was 21.05 (15.5, 24.0) hours. For the same compound, the “Percentage of time with pH >4 (Mean)” value [1, 7] was 85.14%, the “Percentage … (Median (min, max))” value [1, 7] was 88.00 (64.9, 99.8) % and the “Hours with pH >4 (Mean (SD))” value [1, 8] was 22.00 (2.60) hours. For the same compound, the “Hours with pH >4 (Median (min, max))” value [1, 8] was 23.05 (16.6, 24.0) hours, the “Percentage of time with pH >4 (Mean)” value [1, 8] was 91.64% and the “Percentage … (Median (min, max))” value [1, 8] was 96.05 (69.3, 99.8) %. For the same compound, the “additional hours with pH>4 (median), BID vs QD” value [1, 9] was “about two”, the “longer time with pH>4, BID vs QD” value [1, 9] was “about 10%” and the “healing rate vs lansoprazole” value ([2]; 4-week treatment vs 30 mg/day lansoprazole) was “significantly higher healing rates”. The “dose response in the healing rates” value ([2]; 4 weeks, LG 25-100 mg BID) was “clear dose response”, the “healing rate of eGERD” value ([2]; 25, 50, 75 or 100 mg twice daily for 4 weeks) was “high healing rates” and the “highest four-week healing rate in a linaprazan glurate dosing group” value ([2]; LA grade A/B, 4 weeks, BID) was 91%. The “mean healing rate, all patients treated with linaprazan glurate” value ([2]; LA grade A/B/C/D, 4 weeks, all LG doses, FIG. 8) was 80%, the “highest mean LA grade improvement in a linaprazan glurate dosing group” value ([2]; LA grade C/D, 4 weeks, BID, FIG. 5) was 3.1 and the “LA grade improvement of all LG-treated patients vs lansoprazole” value ([2]; LA grade C/D, 4 weeks, all LG doses) was “higher than lansoprazole”. The “highest four-week healing rate in a linaprazan glurate dosing group” value ([2]; LA grade C/D, 4 weeks, FIG. 6 (all LG dose group), FIG. 7 (LG 75 mg dose group)) was 89%, the “patients whose 4-week LA grade was A” value [2, 10] was 6 out of 7 and the “response in the 100 mg dose group” value [2, 10] was “lower than expected”. For the same compound, the “healing rate of all LG-treated patients vs lansoprazole” value ([2]; LA grade C/D, post-hoc analysis, Fisher's exact test) was “significantly higher than lansoprazole” and the “mean harmonic p-value, healing rate LG vs lansoprazole” value ([2]; LA grade C/D, post-hoc, Fisher's exact test) was 0.0404.
